Assay results from BindingDB's records for PubMed 7616416 (Third Tokushima Institute of New Drug Research, 1995).
Where “and” joins values, the source holds several entries; their conditions need not be identical. Equal values may be shown once.

Target: D(2) dopamine receptor (Rattus norvegicus, UniProt P61169)
Sequence (P61169 whole entry): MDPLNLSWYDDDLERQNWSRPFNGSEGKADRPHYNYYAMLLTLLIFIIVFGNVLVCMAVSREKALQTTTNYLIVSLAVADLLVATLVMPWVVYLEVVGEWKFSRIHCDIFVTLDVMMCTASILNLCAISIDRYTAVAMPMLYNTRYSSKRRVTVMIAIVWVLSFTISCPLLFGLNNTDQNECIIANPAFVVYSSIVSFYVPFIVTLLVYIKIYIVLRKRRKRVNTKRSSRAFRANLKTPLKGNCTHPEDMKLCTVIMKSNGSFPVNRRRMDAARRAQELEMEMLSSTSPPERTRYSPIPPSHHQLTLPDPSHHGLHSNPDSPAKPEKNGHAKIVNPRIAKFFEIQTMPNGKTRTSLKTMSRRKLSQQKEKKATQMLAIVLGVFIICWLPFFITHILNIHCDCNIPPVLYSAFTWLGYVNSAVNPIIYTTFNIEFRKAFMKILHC

Cc1cccc(N2CCN(CCCOc3ccc4ccc(=O)[nH]c4c3)CC2)c1C [NSC_163839]
Ki: 19.8 nM and 18 nM and 9.8 nM
